Six compounds from patent publication US20260183407A1, “DYRK/CLK PROTACS AND USES THEREOF” (Arizona Board of Regents on Behalf of the University of …, priority 2022, published 2026) can be followed below.

In test [1] the target is T1, DYRK1A (Homo sapiens, UniProt Q13627).
T1 construct: purchased Eurofins; host or cells: E. coli BL21-derived (T7 phage display) or HEK-293
The test can be described thus: KdELECT kinase binding assay (Eurofins), DYRK1A. The following applies: 11-point 3-fold dilution series, qPCR readout; read-out: Binding Affinity (Kd) DYRK1A. How it is done: (§1) KDs were obtained from Eurofins who used the following procedure: Kinase tagged T7 phase strains were prepared in an E. coli host derived from the BL21 strain. E. coli were grown to log-phase and infected with T7 phage and incubated with shaking at 32° C. until lysis. The lysates were centrifuged and filtered to remove cell debris. The remaining kinases were produced in HEK-293 cells and subsequently tagged with DNA for qPCR detection. Streptavidin-coated magnetic beads were treated with biotinylated small molecule ligands for 30 minutes at room temperature to generate affinity resins for kinase assays. The liganded beads were blocked with excess biotin and washed with locking buffer (SeaBlock (Pierce), 1% BSA, 0.05% Tween 20, 1 mM DTT) to remove unbound ligand and to reduce non-specific binding. Binding reactions were assembled by combining kinases, liganded affinity beads, and test compounds in 1× binding buffer (20% SeaBlock, 0.17× PBS, 0.05% Tween 20, 6 mM DTT). Test compounds were prepared as 111X stocks in 100% DMSO. Kds were determined using a 11-poin 3-fold compound dilution series with three DMSO control points. All compounds for Kd measurements are distributed by acoustic transfer (non-contact dispensing) in 100% DMSO. The compounds were then diluted directly into the assays such that the final concentration of DMSO was 0.9%. All reactions performed in polypropylene 384-well plate. Each was a final volume of 0.02 mL. The assay plates were incubated at room temperature with shaking for 1 hour and the affinity beads were washed with wash buffer (1×PBS, 0.05% Tween 20). The beads were then resuspended in elution buffer (1X PBS, 0.05% Tween 20, 0.5 µM nonbiotinylated affinity ligand) and incubated at room temperature with shaking for 30 minutes. The kinase concentration in the eluates was measured by qPCR.
In general terms: In qPCR the cycle at which signal appears reflects the starting amount.

The next test deals with T2, DYRK1B (Homo sapiens, UniProt Q9Y463).
T2 construct: purchased Eurofins; host or cells: E. coli BL21-derived (T7 phage display) or HEK-293
The test can be described thus: KdELECT kinase binding assay (Eurofins), DYRK1B. The conditions noted are these: 11-point 3-fold dilution series, qPCR readout; read-out: Binding Affinity (Kd) DYRK1B. How it is done:
as §1

For test [2], the target named is T1, DYRK1A. The test can be described thus: HiBiT split luciferase assay of targeted degradation of DYRK1A in Flp-In T-REx 293 cells. The test is classed as cell-based. The conditions noted are these: 300 nM compound, 24 h, HiBiT-tagged DYRK1A in Flp-In T-REx 293 cells, normalized to vehicle; read-out: Relative Degradation at 300 nM DYRK1A. From the text: The Flp-In T-REx 293 Cell Line and the pcDNA5/FRT/TO vector (Invitrogen) were used to generate stable cell clones for tetracyclin-inducible expression of DYRK1A and DYRK1B. These cells contain a single stably integrated Flp recognition target (FRT) site, which allows for site-specific integration of the expression cassette by the Flp (Flippase) recombinase. DYRK1 constructs were designed to contain a C-terminal HiBiT tag for quantitative detection of HiBiT-tagged proteins in cellular lysates with the help a split luciferase assay (Nano-Glo HiBiT Lytic Detection System, Promega). To monitor the targeted degradation of DYRK1A or DYRK1B, cells were seeded in 96-well plates (10,000 cells/per well) and treated with doxycyclineinal concentration 2 μg/ml) to induce DYRK1 expression. Compounds with presumed PROTAC activity were administered 24 h after seeding. After further incubation for 24 h, cells were grossly and microscopically inspected for overt toxicity. Cells were lysed in 100 μL ice-cold passive lysis buffer (PLB, Promega) by orbital shaking (30 min on ice) before lysates were centrifuged in PCR tube (20 min 20,000 g, RT). A 10 μl aliquot of the supernatant was subjected to the HiBiT lytic assay. Luminescence was quantified in an Orion Microplate luminometer (Berthold Detection System, Germany). All compounds were tested in duplicate or triplicate wells (technical replicates) and at least two independent experiments. Relative degradation was calculated by normalization to vehicle-treated control samples.
For orientation: With HiBiT, luminescence reflects the tagged protein that the partner subunit can reach.

T2 sequence (Q9Y463 whole entry, species assumed): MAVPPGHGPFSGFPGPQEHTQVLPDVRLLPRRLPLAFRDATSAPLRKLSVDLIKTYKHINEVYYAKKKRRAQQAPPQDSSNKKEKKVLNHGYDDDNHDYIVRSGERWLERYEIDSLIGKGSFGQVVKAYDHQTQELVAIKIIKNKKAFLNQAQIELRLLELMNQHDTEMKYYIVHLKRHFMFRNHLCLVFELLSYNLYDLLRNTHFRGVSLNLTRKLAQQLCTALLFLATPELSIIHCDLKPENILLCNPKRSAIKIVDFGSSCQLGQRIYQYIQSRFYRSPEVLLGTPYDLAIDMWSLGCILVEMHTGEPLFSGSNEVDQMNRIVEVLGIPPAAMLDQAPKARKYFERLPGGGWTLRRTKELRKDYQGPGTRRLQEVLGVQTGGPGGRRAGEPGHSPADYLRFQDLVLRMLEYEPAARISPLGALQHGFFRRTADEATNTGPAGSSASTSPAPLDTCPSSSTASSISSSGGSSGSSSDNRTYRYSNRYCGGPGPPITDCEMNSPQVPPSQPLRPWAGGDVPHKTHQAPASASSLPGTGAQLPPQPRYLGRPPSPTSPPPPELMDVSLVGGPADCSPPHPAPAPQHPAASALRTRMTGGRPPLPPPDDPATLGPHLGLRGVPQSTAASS

Broadly, the Kd is the free concentration of one partner at which half of the binding sites on the other are occupied at equilibrium, for simple one-to-one binding. Regarding `COc1cc(-n2c(C)nc3ccc(-c4ccnc(N)c4)nc32)ccc1N1CCN(CCC#Cc2ccc(N3CCC(C(=O)N4CCC(n5cc(CNc6cccc7c6C(=O)N(C6CCC(=O)NC6=O)C7=O)cn5)CC4)CC3)nc2)CC1` (centres unmarked) [Compound 38, 4-(((1-(1-(1-(5-(4-(4-(4-(5-(2-aminopyridin-4-yl)-2-methyl-3H-imidazo[4,5-b]pyridin-3-yl)-2-methoxyphenyl)piperazin-1-yl)but-1-yn-1-yl)pyridin-2-yl)piperidine-4-carbonyl)piperidin-4-yl)-1H-pyrazol-4-yl)methyl)amino)-2-(2,6-dioxopiperidin-3-yl)isoindoline-1,3-dione], the Kd at DYRK1A [1] was less than 10 nM; at DYRK1B, 10 to 100 nM.

Take `Cc1nc2ccc(-c3ccnc(N)c3)nc2n1-c1ccc(N2CCN(CCOCCOCCOCCC(=O)NC3CN(c4ccc5c(c4)C(=O)N(C4CCC(=O)NC4=O)C5=O)C3)CC2)c(F)c1` (centres unmarked) [Compound 8, 3-(2-(2-(2-(4-(4-(5-(2-aminopyridin-4-yl)-2-methyl-3H-imidazo[4,5-b]pyridin-3-yl)-2-fluorophenyl)piperazin-1-yl)ethoxy)ethoxy)ethoxy)-N-(1-(2-(2,6-dioxopiperidin-3-yl)-1,3-dioxoisoindolin-5-yl)azetidin-3-yl)propanamide]: at DYRK1A [2], the inhibition at 0.3 µM is less than 30%. Also, the Kd on DYRK1A [1] was less than 10 nM.

For `Cc1nc2ccc(-c3ccnc(N)c3)nc2n1-c1ccc(N2CCN(C(=O)CN3CCC(CC(=O)N4CCC(n5cc(CNc6cccc7c6C(=O)N(C6CCC(=O)NC6=O)C7=O)cn5)CC4)CC3)CC2)c(F)c1` (centres unmarked) [Compound 17, 4-(((1-(1-(2-(1-(2-(4-(4-(5-(2-aminopyridin-4-yl)-2-methyl-3H-imidazo[4,5-b]pyridin-3-yl)-2-fluorophenyl)piperazin-1-yl)-2-oxoethyl)piperidin-4-yl)acetyl)piperidin-4-yl)-1H-pyrazol-4-yl)methyl)amino)-2-(2,6-dioxopiperidin-3-yl)isoindoline-1,3-dione], the inhibition at 0.3 µM on DYRK1A [2] was less than 30%. The Kd at DYRK1A [1] was less than 10 nM.

Regarding `Cc1nc2ccc(-c3ccnc(N)c3)nc2n1-c1ccc(N2CCN(C(=O)CCCCCN3CCN(Cc4ccc(CNc5cccc6c5CN(C5CCC(=O)NC5=O)C6=O)cc4)CC3)CC2)c(F)c1` (centres unmarked) [Compound 15, 3-(4-((4-((4-(6-(4-(4-(5-(2-aminopyridin-4-yl)-2-methyl-3H-imidazo[4,5-b]pyridin-3-yl)-2-fluorophenyl)piperazin-1-yl)-6-oxohexyl)piperazin-1-yl)methyl)benzyl)amino)-1-oxoisoindolin-2-yl)piperidine-2,6-dione], on DYRK1A [2], the inhibition at 0.3 µM was less than 30%. Besides, the Kd at DYRK1A [1] is less than 10 nM.

For `Cc1nc2ccc(-c3ccnc(N)c3)nc2n1-c1ccc(N2CCN(CC#Cc3ccc(N4CCC(O)(C(=O)N5CCC(n6cc(CNc7cccc8c7C(=O)N(C7CCC(=O)NC7=O)C8=O)cn6)CC5)CC4)nc3)CC2)c(F)c1` (centres unmarked) [Compound 33, 4-(((1-(1-(1-(5-(3-(4-(4-(5-(2-aminopyridin-4-yl)-2-methyl-3H-imidazo[4,5-b]pyridin-3-yl)-2-fluorophenyl)piperazin-1-yl)prop-1-yn-1-yl)pyridin-2-yl)-4-hydroxypiperidine-4-carbonyl)piperidin-4-yl)-1H-pyrazol-4-yl)methyl)amino)-2-(2,6-dioxopiperidin-3-yl)isoindoline-1,3-dione], the inhibition at 0.3 µM on DYRK1A [2] is greater than 60%.

Regarding `Cc1nc2ccc(-c3ccnc(N)c3)nc2n1-c1ccc(N2CCN(CCOCCOCCOCCC(=O)N3CCN(c4ccc5c(c4)C(=O)N(C4CCC(=O)NC4=O)C5=O)CC3)CC2)c(F)c1` (centres unmarked) [Compound 9, 5-(4-(3-(2-(2-(2-(4-(4-(5-(2-aminopyridin-4-yl)-2-methyl-3H-imidazo[4,5-b]pyridin-3-yl)-2-fluorophenyl)piperazin-1-yl)ethoxy)ethoxy)ethoxy)propanoyl)piperazin-1-yl)-2-(2,6-dioxopiperidin-3-yl)isoindoline-1,3-dione], the inhibition at 0.3 µM at DYRK1A [2] was less than 30%. Besides, at DYRK1A [1], the Kd is less than 10 nM.
